From publication PMC5478727, “A Novel Small Molecule GDNF Receptor RET Agonist, BT13, Promotes Neurite Growth from Sensory Neurons in Vitro and Attenuates Experimental Neuropathy in the Rat” (Frontiers in Pharmacology, 2017) come the findings set out here.

One data set deals with T1, adenosine receptor A2B (Homo sapiens, UniProt P29275).
T1 construct: purchased CEREP (contract assay) Cat# 0005
Briefly: CEREP A2B (h) (antagonist radioligand). The note with it: BT13 1 μM; Cat. No. 0005; average of duplicate; read-out: Percentage of inhibition/potentiation from control. In kind it is binding.

Data set [1] concerns the target T2, opioid receptor kappa (KOP) (Rattus norvegicus, UniProt P34975).
T2 construct: purchased CEREP (contract assay) 1971
Description: CEREP Kappa (KOP) (agonist radioligand). Format: binding. The note with it: BT13 1 μM; Cat. No. 1971; average of duplicate; read-out: Percentage of inhibition/potentiation from control.

Data set [2] deals with dorsal root ganglia neurons of SNL rats. Briefly: Immunohistochemistry of DRG neuronal markers in rats with spinal nerve ligation. In kind it is in vivo, rat. From the text:
DRGs from rats with spinal nerve ligation treated with BT13 or vehicle were embedded in paraffin and sectioned (7 μm thickness). Sections were deparaffinized, subjected to citrate or basic antigen-retrieval procedure and probed with IB4-Alexa 488 [1:200; IB4-Alexa488, Cat# IB4 (isolectin Griffonia simplicifolia IB4) RRID:AB_2314664] and antibodies against calcitonin gene-related peptide (CGRP; 1:10,000, Peninsula Laboratory, Cat# T-4032 RRID:AB_2313775), NPY (1:10,000, Peninsula Laboratory, Cat# T-4070.0050 RRID:AB_518504), pErk1/2 (1:300, Cell Signaling, Cat# 4370L RRID:AB_2297462), pS6 (1:300, Cell Signaling, Cat# 4858L RRID:AB_1031194) or RET [1:100, kind gift of Dr. E. Kramer, Center for Molecular Neurobiology, University Medical Center Hamburg-Eppendorf, Hamburg, Germany (Meka et al., [2015])] and corresponding secondary antibodies conjugated with fluorophores (Donkey Anti-Rabbit Alexa Fluor 647 conjugate, Cat# A31573 RRID:AB_162544; Donkey anti-Mouse Alexa Fluor 647 conjugate, Cat# A-31571 RRID:AB_2536181; Goat anti-Guinea Pig, Alexa Fluor 568 conjugate, Cat# A-11075 RRID:AB_2534119, Thermo Fisher Scientific, USA) or horse radish peroxidase (VECTASTAIN Elite ABC-Peroxidase Kit antibody, Vector Laboratories, CA, USA, Cat# PK-6101 RRID:AB_2336820). In the latter case, to reveal staining slides were treated with ABC and DAB staining kits (Vector Laboratories, CA, USA) according to the manufacturer's instructions. Sections were co-stained with guinea pig anti-PGP9.5 antibodies (Abcam Cat# ab10410 RRID:AB_297150) whenever possible. Nuclei were visualized using hematoxylin or DAPI dyes. Sections were mounted in Immu-Mount (Thermo Scientific, Cat#9990402) or Coverquick 2000 (Q PATH, Cat#05547530) mounting media and images were taken with fluorescent (Zeiss Imager M2 Axio, Carl Zeiss, Germany) or bright-field (Olympus BX-61, Olympus, Japan) microscopes. Neurons were counted for two sections per DRG and the number of cell profiles with nuclei positive for each specific marker was normalized to the total number of the neurons (identified by PGP9.5 staining or by morphology) per section. Ret-positive neurons were clustered by size using Matlab software R2014b (Mathworks, USA). Statistical analysis was performed using data from three to six individual animals. To obtain sufficient sample size, the data from animals treated with 20 and 25 mg/kg of BT13 were combined.

Data set [3] can be described thus: Pharmacokinetics after intravenous injection. In kind it is in vivo. The note with it: rat, 10 mg/kg intravenously.
Data set [4] deals with cholecystokinin receptor CK1 (CCKA) (Homo sapiens, UniProt P32238). Briefly: CEREP CK1 (CCKA) (h) (agonist radioligand). Conditions: BT13 1 μM; Cat. No. 0039; average of duplicate; read-out: Percentage of inhibition/potentiation from control. In kind it is binding.
Chain of cholecystokinin receptor CK1 (CCKA) (P32238 whole entry): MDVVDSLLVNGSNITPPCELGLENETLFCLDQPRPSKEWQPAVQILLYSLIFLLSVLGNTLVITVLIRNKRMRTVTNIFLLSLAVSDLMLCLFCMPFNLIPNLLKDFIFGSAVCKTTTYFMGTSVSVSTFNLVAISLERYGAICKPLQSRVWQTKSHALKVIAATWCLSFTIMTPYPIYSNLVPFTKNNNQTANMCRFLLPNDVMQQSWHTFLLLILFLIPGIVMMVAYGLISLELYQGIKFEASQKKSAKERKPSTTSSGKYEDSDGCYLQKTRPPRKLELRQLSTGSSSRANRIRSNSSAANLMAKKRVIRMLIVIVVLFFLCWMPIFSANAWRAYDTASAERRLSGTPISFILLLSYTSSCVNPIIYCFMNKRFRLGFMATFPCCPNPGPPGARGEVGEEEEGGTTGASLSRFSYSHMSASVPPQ
A further data set has as its target T3, TrkB (Rattus norvegicus, UniProt Q63604).
T3 construct: expressed in transfected cells; host or cells: MG87 murine fibroblasts (MG87TrkB)
Briefly: Luciferase reporter-gene assay, TrkB reporter cells. In kind it is cell-based. The note with it: TrkB reporter cell line. Background: A reporter such as luciferase makes a cellular process visible.

The target of another data set is T4, TrkA (Rattus norvegicus, UniProt P35739).
T4 construct: expressed in transfected cells; host or cells: MG87 murine fibroblasts (MG87TrkA)
T4 sequence (P35739 33-799): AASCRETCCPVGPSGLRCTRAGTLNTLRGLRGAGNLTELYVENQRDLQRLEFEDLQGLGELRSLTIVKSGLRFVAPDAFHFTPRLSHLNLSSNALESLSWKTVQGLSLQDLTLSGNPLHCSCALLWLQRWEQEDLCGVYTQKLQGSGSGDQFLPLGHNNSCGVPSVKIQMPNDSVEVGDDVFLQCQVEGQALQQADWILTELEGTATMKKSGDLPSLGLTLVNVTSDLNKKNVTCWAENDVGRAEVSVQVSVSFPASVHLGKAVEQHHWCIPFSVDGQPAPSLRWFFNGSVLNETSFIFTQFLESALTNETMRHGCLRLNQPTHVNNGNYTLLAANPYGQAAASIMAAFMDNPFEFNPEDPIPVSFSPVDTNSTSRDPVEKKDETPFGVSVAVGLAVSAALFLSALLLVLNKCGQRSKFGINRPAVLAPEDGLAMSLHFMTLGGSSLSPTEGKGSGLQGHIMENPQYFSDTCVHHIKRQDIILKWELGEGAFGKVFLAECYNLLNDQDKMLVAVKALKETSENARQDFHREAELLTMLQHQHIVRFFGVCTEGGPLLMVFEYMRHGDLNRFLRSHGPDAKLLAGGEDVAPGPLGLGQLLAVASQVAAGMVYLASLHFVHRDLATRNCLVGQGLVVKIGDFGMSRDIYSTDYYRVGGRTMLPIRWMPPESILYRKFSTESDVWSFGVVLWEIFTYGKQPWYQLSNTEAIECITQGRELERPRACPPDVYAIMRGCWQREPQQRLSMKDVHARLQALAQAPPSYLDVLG
Briefly: Luciferase reporter-gene assay, TrkA reporter cells. In kind it is cell-based. The note with it: TrkA reporter cell line.

For a further data set, the target named is dopamine transporter (Homo sapiens, UniProt Q01959). Description: biochemical. The note with it: read-out: Percentage of inhibition/potentiation from control.
Chain of dopamine transporter (Q01959 whole entry): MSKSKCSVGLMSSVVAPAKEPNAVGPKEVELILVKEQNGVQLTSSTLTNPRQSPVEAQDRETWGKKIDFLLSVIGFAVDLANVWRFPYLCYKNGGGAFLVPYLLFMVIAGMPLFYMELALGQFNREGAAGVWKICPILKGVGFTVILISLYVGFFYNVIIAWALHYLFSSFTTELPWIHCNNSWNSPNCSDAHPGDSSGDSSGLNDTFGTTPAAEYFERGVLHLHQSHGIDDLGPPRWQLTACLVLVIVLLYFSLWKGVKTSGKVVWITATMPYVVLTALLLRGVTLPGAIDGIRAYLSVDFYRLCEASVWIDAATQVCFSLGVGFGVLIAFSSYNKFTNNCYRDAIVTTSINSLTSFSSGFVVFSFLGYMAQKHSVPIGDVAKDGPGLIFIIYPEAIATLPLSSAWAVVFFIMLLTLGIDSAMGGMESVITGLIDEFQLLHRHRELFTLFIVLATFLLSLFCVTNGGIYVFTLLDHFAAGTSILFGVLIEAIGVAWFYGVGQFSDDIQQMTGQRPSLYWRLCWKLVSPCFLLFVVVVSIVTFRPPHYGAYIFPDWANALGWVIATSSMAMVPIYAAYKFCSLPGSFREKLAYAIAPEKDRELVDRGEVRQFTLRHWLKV
The target in data set [5] is T5, serotonin receptor 5-HT1A (Homo sapiens, UniProt P08908).
T5 construct: purchased CEREP (contract assay) 0131
T5 sequence (P08908 whole entry): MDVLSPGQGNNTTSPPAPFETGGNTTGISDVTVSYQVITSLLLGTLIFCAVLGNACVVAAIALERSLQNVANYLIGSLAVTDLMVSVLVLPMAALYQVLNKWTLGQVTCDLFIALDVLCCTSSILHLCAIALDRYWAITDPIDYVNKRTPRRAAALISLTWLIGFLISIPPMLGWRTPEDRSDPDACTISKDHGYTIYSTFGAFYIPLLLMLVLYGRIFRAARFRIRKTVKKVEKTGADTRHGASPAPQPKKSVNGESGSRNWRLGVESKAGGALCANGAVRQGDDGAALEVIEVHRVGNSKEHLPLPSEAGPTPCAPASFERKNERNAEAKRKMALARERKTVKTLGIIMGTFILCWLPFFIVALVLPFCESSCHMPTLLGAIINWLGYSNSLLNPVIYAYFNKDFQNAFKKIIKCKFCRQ
Description: CEREP 5-HT1A (h) (agonist radioligand). Format: binding. Conditions: BT13 1 μM; Cat. No. 0131; average of duplicate; read-out: Percentage of inhibition/potentiation from control.

Setting [6] is: SNL rats, BT13 vs vehicle, day 12.
The mark [7] stands for this setting: SNL rats, vs vehicle-treated animals.

T3 sequence (Q63604 32-821): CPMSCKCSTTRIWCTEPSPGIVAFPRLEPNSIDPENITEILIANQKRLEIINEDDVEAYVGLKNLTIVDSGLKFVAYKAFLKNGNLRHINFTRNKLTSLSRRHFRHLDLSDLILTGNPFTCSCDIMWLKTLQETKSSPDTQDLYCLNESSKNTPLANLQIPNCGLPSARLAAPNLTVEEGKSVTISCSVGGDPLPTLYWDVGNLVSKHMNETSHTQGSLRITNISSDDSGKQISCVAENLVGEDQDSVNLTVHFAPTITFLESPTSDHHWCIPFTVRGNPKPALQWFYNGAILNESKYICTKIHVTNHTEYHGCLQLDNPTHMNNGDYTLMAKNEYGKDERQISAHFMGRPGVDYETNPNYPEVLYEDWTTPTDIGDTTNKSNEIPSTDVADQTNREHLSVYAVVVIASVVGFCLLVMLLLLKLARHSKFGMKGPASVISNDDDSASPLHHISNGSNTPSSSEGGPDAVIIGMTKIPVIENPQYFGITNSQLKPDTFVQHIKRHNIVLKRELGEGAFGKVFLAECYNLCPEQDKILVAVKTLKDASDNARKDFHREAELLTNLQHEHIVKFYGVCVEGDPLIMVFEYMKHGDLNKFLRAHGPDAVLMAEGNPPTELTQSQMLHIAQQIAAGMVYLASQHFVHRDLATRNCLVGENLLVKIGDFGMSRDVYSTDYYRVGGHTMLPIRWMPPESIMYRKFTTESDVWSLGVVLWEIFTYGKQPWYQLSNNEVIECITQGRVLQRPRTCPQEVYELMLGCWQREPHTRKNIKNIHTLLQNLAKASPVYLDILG
T1 sequence (P29275 whole entry): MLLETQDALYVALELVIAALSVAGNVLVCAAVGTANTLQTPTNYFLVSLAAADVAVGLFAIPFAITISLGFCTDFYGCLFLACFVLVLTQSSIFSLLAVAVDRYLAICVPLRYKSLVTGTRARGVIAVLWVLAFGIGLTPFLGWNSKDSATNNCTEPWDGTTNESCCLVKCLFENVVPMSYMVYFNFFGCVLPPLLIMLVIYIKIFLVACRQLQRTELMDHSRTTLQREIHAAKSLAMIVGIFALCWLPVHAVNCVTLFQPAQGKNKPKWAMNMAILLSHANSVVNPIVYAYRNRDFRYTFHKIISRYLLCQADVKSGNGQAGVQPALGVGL
T2 sequence (P34975 whole entry): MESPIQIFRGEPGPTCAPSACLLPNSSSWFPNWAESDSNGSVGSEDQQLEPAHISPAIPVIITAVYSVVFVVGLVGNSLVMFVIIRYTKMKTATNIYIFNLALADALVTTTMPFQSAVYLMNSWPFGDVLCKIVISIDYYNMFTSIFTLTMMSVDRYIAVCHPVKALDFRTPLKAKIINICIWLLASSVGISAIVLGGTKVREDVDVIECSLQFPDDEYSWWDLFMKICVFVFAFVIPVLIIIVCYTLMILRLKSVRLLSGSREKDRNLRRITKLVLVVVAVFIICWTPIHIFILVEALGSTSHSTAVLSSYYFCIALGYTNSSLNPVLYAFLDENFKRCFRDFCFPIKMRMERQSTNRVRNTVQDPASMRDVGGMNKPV

As to `CCN(CC)S(=O)(=O)c1ccc(OC)c(N2CCN(C(=O)c3ccc(F)cc3C(F)(F)F)CC2)c1` [BT13], the inhibition at 1 µM on adenosine receptor A2B was -14%; in [1], 0%; in data set [4] it was 3%; on dopamine transporter, 6%; in [5] it was -8%. Further, in [2] (IHC, day 12 after SNL), the “reduction in the number of RET-positive cells in DRGs after SNL” value is given as “restored”. In addition, the “number of large RET-positive neurons in lesioned DRGs” value in [2] (IHC, size above 1,000 μm^2, vs contralateral) was “increased”. Also, the “number of small RET-positive neurons in lesioned DRGs” value in data set [2] (IHC, size below 1,000 μm^2, vs contralateral) is recorded as “decreased”. Also, in data set [2] (SNL rats, BT13 20 and 25 mg/kg combined, day 12), the “IB4 positive cells per section in ipsilateral DRGs” value was found to be 3%. The “number of NPY-positive neurons in contralateral DRGs” value in data set [2] (SNL rats, BT13-treated, vehicle 0.0 ± 0.0) stood at 0.0 ± 0.0. Besides, the “number of CGRP-positive neurons in contralateral DRGs” value in [2] (SNL rats, BT13-treated, vehicle 34.30 ± 1.344) is reported as 25.09 ± 2.687. Besides, the “number of IB4-positive neurons in contralateral DRGs” value in data set [2] (SNL rats, BT13-treated, vehicle 44.95 ± 4.295) is recorded as 44.82 ± 1.960. The “increase in number of CGRP-positive neurons in ipsilateral DRGs” value in data set [2] (setting [6]) was ~ 2 times. In addition, the “reduction in number of NPY-positive cells in ipsilateral DRGs” value in data set [2] (setting [6]) was ~ 25%. Further, the “number of neurons positive for pErk in DRGs” value in [2] (setting [7]) is “increased”. Moreover, in data set [2] (setting [7]), the “number of neurons positive for pS6 in DRGs” value is “increased”. For the same molecule, in data set [3] (male, Sprague Dawley, iv, plasma and brain samples 1, 3 and 6 h, read-out: BBB penetration), the Kp is 0.55 to 0.68. The clearance (usually the volume of plasma or blood freed of the substance per unit of time) in data set [3] (male, Sprague Dawley, plasma, iv) was 78.3 mL/min. The Vd (as a rule, the apparent volume that relates the amount in the body to the concentration in plasma or blood) in data set [3] (male, Sprague Dawley, plasma, iv, one-compartment model) was 23.6 L/kg. The half-life in data set [3] (male, Sprague Dawley, plasma, iv, one-compartment model, read-out: t1/2 (half-life in the blood) (converted)) was 3.47 h. Moreover, the BBB penetration in data set [3] (plasma and brain samples 1, 3 and 6 h, 10 mg/kg) was 55–68%. Moreover, the “activation of luciferase reporter” value on TrkB and at TrkA was “did not activate luciferase” throughout.
